Laboratory results: paper PMC7282810, “Existence and functions of a kisspeptin neuropeptide signaling system in a non-chordate deuterostome species” (eLife, 2020)
“Also recorded” adds a separate entry of the source. Read-outs that look alike come from different tables or passages of the source. Where a SMILES comes first, the peptide text is derived from it. Bridges are numbered along the chain shown (N, C = ends). Where no end group is shown, it is not given here. [ ]: non-standard residue; d: D form.

What was measured:
AjKissR2 [1] = molecular target: T1, AjKissR2 (Apostichopus japonicus, UniProt A0A5B7LIE4); assay: cell-based; format: cell-based; details: for AUC: Ca2+ trace area under curve, HEK293/AjKissR2
T1 sequence (A0A5B7LIE4 1-327): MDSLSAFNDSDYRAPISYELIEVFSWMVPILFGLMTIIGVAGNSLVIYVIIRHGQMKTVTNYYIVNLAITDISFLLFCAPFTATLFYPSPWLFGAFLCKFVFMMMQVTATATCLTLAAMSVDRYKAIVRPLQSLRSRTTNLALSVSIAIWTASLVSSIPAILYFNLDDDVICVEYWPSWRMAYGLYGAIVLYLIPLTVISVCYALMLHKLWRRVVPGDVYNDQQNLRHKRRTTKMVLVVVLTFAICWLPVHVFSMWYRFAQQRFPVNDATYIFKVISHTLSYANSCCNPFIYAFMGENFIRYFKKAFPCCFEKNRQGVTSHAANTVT
Experimental: (§1) The fluorescent Ca^2+ indicator Fura-2/AM was used to detect intracellular calcium flux ([Li et al., 2010]). Briefly, the HEK293 cells expressing the AjKissR1, AjKissR2 or vertebrate kisspeptin receptor were washed twice with PBS and suspended at 5 × 10^6 cells/mL in Hanks’ balanced salt solution. The cells were then loaded with 3.0 μM Fura-2/AM for 30 min and washed twice in Hanks’ solution. They were then stimulated with the indicated concentrations of different predicted A. japonicus kisspeptins or vertebrate kisspeptins. Finally, intracellular calcium flux was measured for 60 s, by determining the ratio of excitation wavelengths at 340 and 380 nm using a fluorescence spectrometer (Infinite 200 PRO, Tecan, Männedorf, Switzerland). All of the experiments for measuring Ca^2+ mobilization were repeated independently at least three times.

AjKissR1 [2] = molecular target: T2, AjKissR1 (Apostichopus japonicus, UniProt A0A5B7LK60); assay: cell-based; format: cell-based
T2 sequence (A0A5B7LK60 1-378): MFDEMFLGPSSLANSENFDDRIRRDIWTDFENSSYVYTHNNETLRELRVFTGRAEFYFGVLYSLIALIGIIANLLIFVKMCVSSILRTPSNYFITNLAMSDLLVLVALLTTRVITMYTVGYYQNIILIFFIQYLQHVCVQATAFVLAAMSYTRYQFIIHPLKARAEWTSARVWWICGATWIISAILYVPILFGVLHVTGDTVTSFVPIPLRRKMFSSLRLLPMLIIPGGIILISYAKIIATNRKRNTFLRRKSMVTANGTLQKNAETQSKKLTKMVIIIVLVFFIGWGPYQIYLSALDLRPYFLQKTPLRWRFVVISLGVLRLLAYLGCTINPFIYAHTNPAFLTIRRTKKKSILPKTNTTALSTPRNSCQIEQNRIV
Experimental: as §1

AjKissR1 [3] = molecular target: T2, AjKissR1; assay: Ligand competition binding assay (FITC-AjKiss1a, FACS), HEK293/AjKissR1; details: 1.0 μM FITC-AjKiss1a, read-out: IC50 (competitive displacement of FITC-AjKiss1a)
Experimental: (§2) A fluorescence-activated cell sorter (FACS) was used to detect the binding ability of kisspeptins with AjKissR1 or AjKissR2. HEK293 cells expressing FLAG–AjKissR1 or FLAG–AjKissR2 were washed with PBS that contained 0.2% bovine serum albumin (FACS buffer). We designed and synthesized an N-terminal FITC-labeled AjKiss1a peptide (see 'Key resources table'). Different kisspeptins were diluted in the FACS buffer to different concentrations, then added to cells that were incubated on ice for 60–90 min. Cells were washed thrice with the FACS buffer and re-suspended in the FACS buffer with 1% paraformaldehyde for 15 min. The binding activity of the indicated kisspeptin peptides with AjKissR1 or AjKissR2 was determined by measuring the fluorescence of FITC and was presented as a percentage of total binding.

[4] = test system: zebrafish kisspeptin receptor DrKiss1Ra; assay: Intracellular Ca2+ mobilization (Fura-2/AM) in DrKiss1Ra-expressing HEK293 cells; format: cell-based; details: 1.0 μM peptide, HEK293, Fura-2/AM
Experimental: as §1

AjKissR2 [5] = molecular target: T1, AjKissR2; format: cell-based; details: Ca2+ trace (Fura-2/AM) area under curve, AjKiss1a at Log[M] -10 (100 pM), HEK293/AjKissR2, 68 s trace
AjKissR2 [6] = molecular target: T1, AjKissR2; assay: Ligand competition binding assay (FITC-AjKiss1a, FACS), HEK293/AjKissR2; details: 1.0 μM FITC-AjKiss1a, read-out: IC50 (competitive displacement of FITC-AjKiss1a)
Experimental: as §2

[7] = test system: human kisspeptin receptor (HsKiss1R); assay: Intracellular Ca2+ mobilization (Fura-2/AM) in HsKiss1R-expressing HEK293 cells; format: cell-based; details: 1.0 μM peptide, HEK293, Fura-2/AM
Experimental: as §1

AjKissR2-EGFP = assay: Receptor internalization (translocation) by confocal microscopy, AjKissR2-EGFP; format: cell-based, Apostichopus japonicus; details: 1.0 μM ligand, 60 min
Experimental: For receptor-surface expression analysis, HEK293 cells expressing AjKissR1/2-EGFP were seeded onto glass coverslips in 12-well plates, coated with 0.1 mg/mL poly-L-lysine, and allowed to attach overnight under normal growth conditions ([Li et al., 2010]). The cells were washed three times with PBS and further stained with the membrane probe DiI (Beyotime) at 37°C for 5–10 min, fixed with 4% paraformaldehyde for 10 min, and then incubated with DAPI (Beyotime) for 5–10 min. For the translocation assays, the receptor-expressing cells were treated with 1.0 μM of various stimuli for 60 min, washed three times with PBS and then fixed with 4% paraformaldehyde in PBS for 10 min at room temperature. Finally, the cells were mounted in mounting reagent (DTT/PBS/glycerol, 1:8:2) and visualized by fluorescence microscopy on a Zeiss laser scanning confocal microscope, which was attached to a Zeiss Axiovert 200 microscope and linked to an LSM5 computer system.

[8] = test system: zebrafish kisspeptin receptor DrKiss1Rb; assay: Intracellular Ca2+ mobilization (Fura-2/AM) in DrKiss1Rb-expressing HEK293 cells; format: cell-based; details: 1.0 μM peptide, HEK293, Fura-2/AM
Experimental: as §1

[9] = test system: cultured oocytes of sea cucumber; assay: Immunofluorescence staining of p-ERK signal in cultured oocytes (confocal microscopy); format: cell-based, Apostichopus japonicus; details: 4-hr pre-treatment with pep234
Experimental: Paraffin sections were baked at 60°C for 2–4 hr and placed in xylene for 15 min, twice. The slides were washed twice in 100% ethanol for 10 min each, then in 95% ethanol for 10 min, 85% ethanol for 5 min, 70% ethanol for 5 min, and 50% ethanol for 5 min, followed by washing with dH2O for 5 min, and finally washing with PBS for 5 min. Antigen unmasking was performed in sodium citrate buffer (pH 6) for 10 min at 97°C, and then cooled to room temperature. Endogenous peroxidases were blocked by 10 min incubation in 3.0% hydrogen peroxide. Nonspecific antigens were blocked by a 60 min incubation in 0.3% bovine serum albumin (BSA) in TBST. Slides were incubated with primary antibodies overnight after removing the blocking solution, followed by 2 hr incubation with fluorescein isothiocyanate (FITC)-conjugated secondary antibodies (FITC-labeled goat anti-rabbit IgG (H+L), Beyotime). […]
(§3) For in vitro experiments, the ovary and respiratory tree tissues were cut into small pieces of approximately 1 mm^3 and cultured in Leibovitz L-15 medium (HyClone) supplemented with 12.0 g/L NaCl, 0.32 g/L KCl, 0.36 g/L CaCl2, 0.6 g/L Na2SO4, 2.4 g/L MgCl2, 0.6 g/L glucose at 18°C in a humidified incubator ([Wang et al., 2020]). For ERK1/2 phosphorylation or immunofluorescence assays, samples were evaluated or fixed after 2 hr of ligand/PBS administration, with a 4 hr pre-treatment of pep234/PBS.

[10] = test system: cultured oocytes of sea cucumber; assay: ERK1/2 phosphorylation (western blot) in cultured ovary / oocytes of sea cucumber; format: cell-based, Apostichopus japonicus; details: pep234 1.0 μM, 4-hr pre-treatment; DrKiss1-10 or AjKiss1b-10 administrated cells
Experimental: To examine the phosphorylation of ERK, cells that expressed AjKissr1/2 or other GPR54s were incubated for the indicated times with different concentrations of kisspeptins. Subsequently, cells were lysed with lysis buffer (Beyotime) that contained protease inhibitor (Roche) at 4°C for 30 min on a rocker and then scraped. Proteins were then electrophoresed on a 10% SDS polyacrylamide gel and transferred to polyvinylidene difluoride (PVDF) membranes. Membranes were blocked with 5% skimmed milk, then probed with rabbit anti-phospho-ERK1/2(Thr^202/Tyr^204) antibody (1:2000; Cell Signaling Technology), followed by detection using HRP-conjugated goat anti-rabbit IgG (Beyotime). Blots were stripped and reprobed using anti-ERK1/2 antibody (1:2000; Cell Signaling Technology) as a control for protein loading.
as §3

FLAG–AjKissR2 = molecular target: T3, FLAG–AjKissR2 (Apostichopus japonicus); assay: competition with 1.0 uM FITC-AjKiss1a
T3 chain: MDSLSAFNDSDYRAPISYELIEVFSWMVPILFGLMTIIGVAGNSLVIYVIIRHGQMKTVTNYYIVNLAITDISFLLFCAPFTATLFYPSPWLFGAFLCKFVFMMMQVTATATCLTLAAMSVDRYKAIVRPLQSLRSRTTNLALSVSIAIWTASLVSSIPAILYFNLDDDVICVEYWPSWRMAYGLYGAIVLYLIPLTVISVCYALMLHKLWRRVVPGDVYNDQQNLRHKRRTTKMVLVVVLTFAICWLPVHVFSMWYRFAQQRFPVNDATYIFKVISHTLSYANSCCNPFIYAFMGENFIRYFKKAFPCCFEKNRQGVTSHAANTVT

[11] = molecular target: FLAG–AjKissR1 (Apostichopus japonicus)
[12] = molecular target: FLAG–AjKissR1 (Apostichopus japonicus); assay: flow cytometry on cells; ligand competition: 1.0 uM FITC-AjKiss1a with unlabeled kisspeptins at the indicated concentrations on HEK293 cells expressing FLAG-AjKissR1 or FLAG-AjKissR2; on ice 60-90 min; PBS with 0.2% BSA; FITC fluorescence as percentage of total binding
[13] = log(agonist) vs. response (three parameters) fit of AUC, AjKiss1a on AjKissR2, 5 points
[14] = fit of AUC vs Log[AjKiss1a]M, source data Figure 3B1

In the case of `CC(C)C[C@H](NC(=O)[C@H](CO)NC(=O)CNC(=O)[C@H](C)N)C(=O)N[C@@H](CC(=O)O)C(=O)N[C@H]1CSSC[C@@H](C(=O)N[C@@H](CCC(=O)O)C(=O)N[C@@H](CC(=O)O)C(=O)N[C@H](C(=O)N[C@@H](CCC(=O)O)C(=O)N[C@@H](CCCNC(=N)N)C(=O)N[C@@H](CCCNC(=N)N)C(=O)NCC(=O)N[C@@H](CCCNC(=N)N)C(=O)N[C@@H](CCC(N)=O)C(=O)N2CCC[C@H]2C(=O)N[C@@H](CC(N)=O)C(=O)N[C@@H](CCCNC(=N)N)C(=O)N[C@@H](CC(N)=O)C(=O)N[C@@H](C)C(=O)N[C@@H](Cc2c[nH]cn2)C(=O)N[C@@H](Cc2ccc(O)cc2)C(=O)N[C@@H](CCCNC(=N)N)C(=O)N[C@H](C(=O)N[C@@H](CC(C)C)C(=O)N2CCC[C@H]2C(=O)N[C@@H](Cc2ccccc2)C(N)=O)[C@@H](C)O)C(C)C)NC(=O)[C@H](CO)NC(=O)[C@H](C)NC(=O)[C@H](CCC(=O)O)NC(=O)[C@H](CC(C)C)NC1=O` [AjKiss1a] (H-AGSLDCLEASCEDVERRGRQPNRNAHYRTLPF-NH2; disulfide 6-11), the EC50 (AjKissR2 [1]) is reported as 1.98 nM, the AUC (AjKissR2 [1]; AjKiss1a at Log[M] -6 (1 μM)) is reported as 24.14 and the AUC (AjKissR2 [1]; AjKiss1a at Log[M] -7 (100 nM)) is reported as 24.83. For the same molecule, the AUC (AjKissR2 [1]; AjKiss1a at Log[M] -8 (10 nM)) was 24.2, the AUC (AjKissR2 [1]; AjKiss1a at Log[M] -9 (1 nM)) was 11.14 and the “Bottom (best-fit value)” value (AjKissR2 [1]; [13]) was 6.057. The “Span (best-fit value)” value (AjKissR2 [1]; [13]) was 19.28, the “Top (best-fit value)” value (AjKissR2 [1]; [13]) was 25.34 and the “LogEC50 (best-fit value)” value (AjKissR2 [1]; log(agonist) vs. response (three parameters) fit of AUC, Log[AjKiss1a]M, AjKissR2, 5 points) was -8.703. The EC50 (AjKissR1 [2]) was 80.8 nM, the “AUC (Ca2+ mobilization)” value (AjKissR1 [2]; Log[AjKiss1a]M -6) was 18.82 and the “AUC (Ca2+ mobilization)” value (AjKissR1 [2]; Log[AjKiss1a]M -7) was 12.93. For the same molecule, the “AUC (Ca2+ mobilization)” value (AjKissR1 [2]; Log[AjKiss1a]M -8) was 8.793, the “AUC (Ca2+ mobilization)” value (AjKissR1 [2]; Log[AjKiss1a]M -9) was 6.715 and the “AUC (Ca2+ mobilization)” value (AjKissR1 [2]; Log[AjKiss1a]M -10) was 4.474. For the same molecule, the “Bottom (best-fit value)” value (AjKissR1 [2]; [14]) was 5.962, the “LogEC50 (best-fit value)” value (AjKissR1 [2]; [14]) was -7.093 and the “Span (best-fit value)” value (AjKissR1 [2]; [14]) was 13.69. For the same molecule, the “Top (best-fit value)” value (AjKissR1 [2]; [14]) was 19.65, the IC50 (AjKissR1 [3]) was 568 nM and the “Activation of DrKiss1Ra, Ca2+ mobilization (in words)” value [4] was “could activate; also recorded: could potentiate”. For the same molecule, the AUC (AjKissR2 [5]) was 7.592, the IC50 (AjKissR2 [6]) was 95.2 nM and the “Activation of HsKiss1R, Ca2+ mobilization (in words)” value [7] was “could activate; also recorded: could potentiate”. For the same molecule, the “Internalization of AjKissR2-EGFP from the plasma membrane to the cytoplasm (in words)” value (AjKissR2-EGFP) was “significant internalization” and the “Activation of DrKiss1Rb, Ca2+ mobilization (in words)” value [8] was “could activate; also recorded: could potentiate”.

For “Ac-[dA]NWNGFG[dW]RF-NH2 [pep234, vertebrate kisspeptin antagonist]”, the “Inhibition of AjKiss1b-10-induced p-ERK signal in oocytes, confocal microscopy (in words)” value [9] was “inhibition” and the “Block of kisspeptin-induced ERK phosphorylation signal, western blot (in words)” value [10] was “blocked”.

B1: AjKiss1b (C-terminal amidated) (peptide)
peptide: SAVKNKNKSRARPPLLPF-NH2
In the case of B1, the IC50 (FLAG–AjKissR2) is reported as 1250 nM, the EC50 of intracellular Ca2+ mobilization (Fura-2/AM) in HEK293 cells expressing FLAG-AjKissR1 [11] is reported as 8.06 nM and the IC50 [12] is reported as 353 nM.
